# Assay results from patent US7034053B2, “Phenethanolamine derivatives, compositions, and their use as agonists at atypical beta-adrenoreceptors” (SmithKline Beecham Corporation, priority 2001, dated 2006).
row,melting point,SMILES
1,250 °C (dec.),"O=C(O)c1ccoc1-c1cccc(NCCNC[C@H](O)c2cccc(Cl)c2)c1 [Example 2, 2-(3-{[2-(3-Chlorophenyl)-2R-hydroxyl-ethylamino]ethylamino}phenyl)furan-3-carboxylic acid]"
2,275 °C (dec.),"O=C(O)c1ccsc1-c1cccc(NCCNC[C@H](O)c2cccc(Cl)c2)c1 [Example 5, 2-(3-{[2-(3-Chlorophenyl)-2R-hydroxyl-ethylamino]ethylamino}phenyl)thiophene-3-carboxylic acid]"
